According to ChEMBL document CHEMBL5370626, “Targeting the Subpocket Enables the Discovery of Thiadiazole-Pyridazine Derivatives as Glutaminase C Inhibitors” (ACS Med Chem Lett, 2023):
Calls of active or inactive are those of the source. No cut-off for these calls is given here.

What was measured:
[1] = target: T1, Glutaminase kidney isoform, mitochondrial (Homo sapiens) (UniProt O94925); experiment: Inhibition of GAC (unknown origin)
T1 sequence (whole entry): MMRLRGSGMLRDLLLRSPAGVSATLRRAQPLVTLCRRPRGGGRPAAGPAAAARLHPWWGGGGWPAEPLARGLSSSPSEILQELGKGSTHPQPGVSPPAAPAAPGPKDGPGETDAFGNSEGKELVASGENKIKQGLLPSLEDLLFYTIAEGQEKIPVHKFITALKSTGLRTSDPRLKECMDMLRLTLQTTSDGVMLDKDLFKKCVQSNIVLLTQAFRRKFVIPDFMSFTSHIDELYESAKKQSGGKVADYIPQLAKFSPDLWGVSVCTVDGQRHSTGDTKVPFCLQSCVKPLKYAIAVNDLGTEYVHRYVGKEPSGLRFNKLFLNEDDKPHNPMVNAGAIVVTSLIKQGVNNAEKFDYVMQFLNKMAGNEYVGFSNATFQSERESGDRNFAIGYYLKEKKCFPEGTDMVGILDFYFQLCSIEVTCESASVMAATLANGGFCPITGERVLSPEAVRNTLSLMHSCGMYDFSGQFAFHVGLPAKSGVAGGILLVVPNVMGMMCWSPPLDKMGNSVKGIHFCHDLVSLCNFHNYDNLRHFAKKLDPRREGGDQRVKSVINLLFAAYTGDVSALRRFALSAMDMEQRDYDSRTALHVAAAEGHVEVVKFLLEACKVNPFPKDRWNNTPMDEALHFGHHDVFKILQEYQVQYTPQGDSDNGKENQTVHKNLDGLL

[2] = Mutagenicity in Salmonella typhimurium TA98 measured at 1.5 to 1000 ug per well for 48 to 72 hrs by mini-Ames test; format: toxicity, Salmonella enterica subsp. enterica serovar Typhimurium; settings: in vivo; dose lower 1.5 µg, time lower 48 hrs, dose upper 1000 µg, time upper 72 hrs
A549 [3] = experiment: Inhibition of colony formation in human A549 cells assessed as reduction of colony number at 1 uM measured after 4 days by crystal violet staining-based colony formation assay relative to control; format: functional; settings: A549, 96 h, time 4 day
[4] = Mutagenicity in Salmonella typhimurium TA1535 measured at 1.5 to 1000 ug per well for 48 to 72 hrs by mini-Ames test; format: toxicity, Salmonella enterica subsp. enterica serovar Typhimurium; settings: in vivo; dose lower 1.5 µg, time lower 48 hrs, dose upper 1000 µg, time upper 72 hrs
[5] = target: T1, Glutaminase kidney isoform, mitochondrial (Homo sapiens); experiment: Inhibition of human GAC in A549 cells assessed as induction of ROS level incubated for 16 hrs by DCFH-DA staining based flow cytometric analysis; format: cell-based; settings: dose 100-1000 nM
[6] = Mutagenicity in Salmonella typhimurium TA98 measured at 1.5 to 1000 ug per well for 48 to 72 hrs in presence of S9 liver fraction by mini-Ames test; format: toxicity, subcellular, Salmonella enterica subsp. enterica serovar Typhimurium; settings: dose lower 1.5 µg, time lower 48 hrs, dose upper 1000 µg, time upper 72 hrs
[7] = Half life in Sprague-Dawley rat plasma at 100 mg/kg, po measured up to 48 hrs by LC-MS/MS analysis; format: ADME, organism-based
[8] = Oral bioavailability in Sprague-Dawley rat plasma at 100 mg/kg measured up to 48 hrs by LC-MS/MS analysis; format: ADME, organism-based
[9] = Toxicity in Balb/c nude mouse xenografted with human A549 cells assessed as change in body weight at 100 to 150 mg/kg, po administered once daily 24 days; format: organism-based; settings: in vivo, 576 h, dose 100-150 mg/kg, time 24 day
[10] = Cmax in Sprague-Dawley rat plasma at 100 mg/kg, po measured up to 48 hrs by LC-MS/MS analysis; format: ADME, organism-based; parameters: dose 100 mg/kg, time < 48 hrs, route po
[11] = MRT(0 to infinity) in Sprague-Dawley rat plasma at 100 mg/kg, po measured up to 48 hrs by LC-MS/MS analysis; format: ADME, organism-based
[12] = Mutagenicity in Salmonella typhimurium TA100 measured at 1.5 to 1000 ug per well for 48 to 72 hrs by mini-Ames test; format: toxicity, Salmonella enterica subsp. enterica serovar Typhimurium; settings: in vivo; dose lower 1.5 µg, time lower 48 hrs, dose upper 1000 µg, time upper 72 hrs
[13] = (§1) Inhibition of human recombinant GAC K320A mutant (73 to 598 residues ) expressed in Escherichia coli BL21 (DE3) cells incubated for 10 mins by fluorometric assay
Homo sapiens = organism: Homo sapiens; experiment: as §1
[14] = target: Voltage-gated inwardly rectifying potassium channel KCNH2 (Homo sapiens, UniProt Q12809); experiment: Inhibition of human ERG expressed in HEK293 cells at -80 mV holding potential by whole cell patch-clamp assay; format: toxicity, cell-based
[15] = Mutagenicity in Salmonella typhimurium TA100 measured at 1.5 to 1000 ug per well for 48 to 72 hrs in presence of S9 liver fraction by mini-Ames test; format: toxicity, subcellular, Salmonella enterica subsp. enterica serovar Typhimurium; settings: dose lower 1.5 µg, time lower 48 hrs, dose upper 1000 µg, time upper 72 hrs
[16] = target: Sodium channel protein type 5 subunit alpha (Homo sapiens, UniProt Q14524); experiment: Inhibition of human Nav1.5 channel stably expressed in CHO cells at -120 mV holding potential by whole cell patch-clamp assay; format: toxicity, cell-based
[17] = Mutagenicity in Salmonella typhimurium TA1537 measured at 1.5 to 1000 ug per well for 48 to 72 hrs by mini-Ames test; format: toxicity, Salmonella enterica subsp. enterica serovar Typhimurium; settings: in vivo; dose lower 1.5 µg, time lower 48 hrs, dose upper 1000 µg, time upper 72 hrs
[18] = Cmax in Sprague-Dawley rat plasma at 10 mg/kg, iv measured up to 48 hrs by LC-MS/MS analysis; format: ADME, organism-based; parameters: dose 10 mg/kg, time < 48 hrs, route iv
[19] = MRT(0 to infinity) in Sprague-Dawley rat plasma at 10 mg/kg, iv measured up to 48 hrs by LC-MS/MS analysis; format: ADME, organism-based
[20] = Volume of distribution in Sprague-Dawley rat plasma at 10 mg/kg, iv measured up to 48 hrs by LC-MS/MS analysis; format: ADME, organism-based
[21] = Mutagenicity in Salmonella typhimurium TA1537 measured at 1.5 to 1000 ug per well for 48 to 72 hrs in presence of S9 liver fraction by mini-Ames test; format: toxicity, subcellular, Salmonella enterica subsp. enterica serovar Typhimurium; settings: dose lower 1.5 µg, time lower 48 hrs, dose upper 1000 µg, time upper 72 hrs
[22] = Mutagenicity in Salmonella typhimurium TA1535 measured at 1.5 to 1000 ug per well for 48 to 72 hrs in presence of S9 liver fraction by mini-Ames test; format: toxicity, subcellular, Salmonella enterica subsp. enterica serovar Typhimurium; settings: dose lower 1.5 µg, time lower 48 hrs, dose upper 1000 µg, time upper 72 hrs
[23] = Half life in Sprague-Dawley rat plasma at 10 mg/kg, iv measured up to 48 hrs by LC-MS/MS analysis; format: ADME, organism-based
[24] = Mutagenicity in Escherichia coli WP2 uvrA measured at 1.5 to 1000 ug per well for 48 to 72 hrs by mini-Ames test; format: toxicity; settings: in vivo; dose lower 1.5 µg, time lower 48 hrs, dose upper 1000 µg, time upper 72 hrs
A549 [25] = experiment: Antiproliferative activity against human A549 cells assessed as reduction in cell viability incubated for 72 hrs by Celltiter-glo assay; format: functional, cell-based; settings: A549, 72 h
A549 [26] = experiment: Inhibition of colony formation in human A549 cells assessed as reduction of colony number measured after 4 days by crystal violet staining-based colony formation assay; format: functional, cell-based; settings: dose 10-1000 nM, time 4.0 day
A549 [27] = experiment: Antitumor activity against human A549 cells xenografted in Balb/c nude mouse assessed as tumor growth inhibition at 150 mg/kg, po administered once daily 24 days relative to control; format: functional, organism-based; settings: time 24.0 day
[28] = Mutagenicity in Escherichia coli WP2 uvrA measured at 1.5 to 1000 ug per well for 48 to 72 hrs in presence of S9 liver fraction by mini-Ames test; format: toxicity, subcellular; settings: dose lower 1.5 µg, time lower 48 hrs, dose upper 1000 µg, time upper 72 hrs
[29] = MRT(0 to t) in Sprague-Dawley rat plasma at 100 mg/kg, po measured up to 48 hrs by LC-MS/MS analysis; format: ADME, organism-based
[30] = AUC(0 to infinity) in Sprague-Dawley rat plasma at 10 mg/kg, iv measured up to 48 hrs by LC-MS/MS analysis; format: ADME, organism-based; parameters: dose 10 mg/kg, time < 48 hrs, route iv

Chain of Voltage-gated inwardly rectifying potassium channel KCNH2 (Q12809 whole entry): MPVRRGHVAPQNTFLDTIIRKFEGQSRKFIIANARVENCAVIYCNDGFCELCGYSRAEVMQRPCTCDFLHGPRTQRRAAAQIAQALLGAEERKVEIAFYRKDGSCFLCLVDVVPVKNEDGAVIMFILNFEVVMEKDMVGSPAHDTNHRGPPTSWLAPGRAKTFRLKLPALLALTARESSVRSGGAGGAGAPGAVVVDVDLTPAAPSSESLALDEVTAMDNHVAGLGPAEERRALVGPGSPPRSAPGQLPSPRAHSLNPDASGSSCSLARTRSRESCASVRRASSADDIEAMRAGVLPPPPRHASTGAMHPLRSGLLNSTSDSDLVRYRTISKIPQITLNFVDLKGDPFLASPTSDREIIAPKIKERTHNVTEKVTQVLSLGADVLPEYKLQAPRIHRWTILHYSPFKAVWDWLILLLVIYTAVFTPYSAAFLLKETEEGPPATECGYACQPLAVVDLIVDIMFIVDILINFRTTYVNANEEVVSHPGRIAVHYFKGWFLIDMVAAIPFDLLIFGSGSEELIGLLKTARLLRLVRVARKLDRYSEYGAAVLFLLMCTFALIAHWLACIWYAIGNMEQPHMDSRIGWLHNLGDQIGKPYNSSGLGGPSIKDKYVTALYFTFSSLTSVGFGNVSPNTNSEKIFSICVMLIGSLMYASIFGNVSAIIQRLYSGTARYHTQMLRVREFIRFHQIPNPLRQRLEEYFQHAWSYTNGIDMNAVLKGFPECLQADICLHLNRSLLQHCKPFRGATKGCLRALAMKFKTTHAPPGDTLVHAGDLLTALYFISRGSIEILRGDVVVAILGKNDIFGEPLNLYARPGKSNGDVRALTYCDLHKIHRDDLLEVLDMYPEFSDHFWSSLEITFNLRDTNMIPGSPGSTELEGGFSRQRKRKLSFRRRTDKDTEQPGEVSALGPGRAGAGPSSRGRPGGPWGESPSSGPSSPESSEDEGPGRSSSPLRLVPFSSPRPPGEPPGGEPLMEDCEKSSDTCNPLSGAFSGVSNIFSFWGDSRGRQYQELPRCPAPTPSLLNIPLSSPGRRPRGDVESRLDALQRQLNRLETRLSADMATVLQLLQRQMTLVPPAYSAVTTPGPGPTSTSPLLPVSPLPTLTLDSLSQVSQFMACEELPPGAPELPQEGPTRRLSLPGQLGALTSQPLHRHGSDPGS
Chain of Sodium channel protein type 5 subunit alpha (Q14524 whole entry): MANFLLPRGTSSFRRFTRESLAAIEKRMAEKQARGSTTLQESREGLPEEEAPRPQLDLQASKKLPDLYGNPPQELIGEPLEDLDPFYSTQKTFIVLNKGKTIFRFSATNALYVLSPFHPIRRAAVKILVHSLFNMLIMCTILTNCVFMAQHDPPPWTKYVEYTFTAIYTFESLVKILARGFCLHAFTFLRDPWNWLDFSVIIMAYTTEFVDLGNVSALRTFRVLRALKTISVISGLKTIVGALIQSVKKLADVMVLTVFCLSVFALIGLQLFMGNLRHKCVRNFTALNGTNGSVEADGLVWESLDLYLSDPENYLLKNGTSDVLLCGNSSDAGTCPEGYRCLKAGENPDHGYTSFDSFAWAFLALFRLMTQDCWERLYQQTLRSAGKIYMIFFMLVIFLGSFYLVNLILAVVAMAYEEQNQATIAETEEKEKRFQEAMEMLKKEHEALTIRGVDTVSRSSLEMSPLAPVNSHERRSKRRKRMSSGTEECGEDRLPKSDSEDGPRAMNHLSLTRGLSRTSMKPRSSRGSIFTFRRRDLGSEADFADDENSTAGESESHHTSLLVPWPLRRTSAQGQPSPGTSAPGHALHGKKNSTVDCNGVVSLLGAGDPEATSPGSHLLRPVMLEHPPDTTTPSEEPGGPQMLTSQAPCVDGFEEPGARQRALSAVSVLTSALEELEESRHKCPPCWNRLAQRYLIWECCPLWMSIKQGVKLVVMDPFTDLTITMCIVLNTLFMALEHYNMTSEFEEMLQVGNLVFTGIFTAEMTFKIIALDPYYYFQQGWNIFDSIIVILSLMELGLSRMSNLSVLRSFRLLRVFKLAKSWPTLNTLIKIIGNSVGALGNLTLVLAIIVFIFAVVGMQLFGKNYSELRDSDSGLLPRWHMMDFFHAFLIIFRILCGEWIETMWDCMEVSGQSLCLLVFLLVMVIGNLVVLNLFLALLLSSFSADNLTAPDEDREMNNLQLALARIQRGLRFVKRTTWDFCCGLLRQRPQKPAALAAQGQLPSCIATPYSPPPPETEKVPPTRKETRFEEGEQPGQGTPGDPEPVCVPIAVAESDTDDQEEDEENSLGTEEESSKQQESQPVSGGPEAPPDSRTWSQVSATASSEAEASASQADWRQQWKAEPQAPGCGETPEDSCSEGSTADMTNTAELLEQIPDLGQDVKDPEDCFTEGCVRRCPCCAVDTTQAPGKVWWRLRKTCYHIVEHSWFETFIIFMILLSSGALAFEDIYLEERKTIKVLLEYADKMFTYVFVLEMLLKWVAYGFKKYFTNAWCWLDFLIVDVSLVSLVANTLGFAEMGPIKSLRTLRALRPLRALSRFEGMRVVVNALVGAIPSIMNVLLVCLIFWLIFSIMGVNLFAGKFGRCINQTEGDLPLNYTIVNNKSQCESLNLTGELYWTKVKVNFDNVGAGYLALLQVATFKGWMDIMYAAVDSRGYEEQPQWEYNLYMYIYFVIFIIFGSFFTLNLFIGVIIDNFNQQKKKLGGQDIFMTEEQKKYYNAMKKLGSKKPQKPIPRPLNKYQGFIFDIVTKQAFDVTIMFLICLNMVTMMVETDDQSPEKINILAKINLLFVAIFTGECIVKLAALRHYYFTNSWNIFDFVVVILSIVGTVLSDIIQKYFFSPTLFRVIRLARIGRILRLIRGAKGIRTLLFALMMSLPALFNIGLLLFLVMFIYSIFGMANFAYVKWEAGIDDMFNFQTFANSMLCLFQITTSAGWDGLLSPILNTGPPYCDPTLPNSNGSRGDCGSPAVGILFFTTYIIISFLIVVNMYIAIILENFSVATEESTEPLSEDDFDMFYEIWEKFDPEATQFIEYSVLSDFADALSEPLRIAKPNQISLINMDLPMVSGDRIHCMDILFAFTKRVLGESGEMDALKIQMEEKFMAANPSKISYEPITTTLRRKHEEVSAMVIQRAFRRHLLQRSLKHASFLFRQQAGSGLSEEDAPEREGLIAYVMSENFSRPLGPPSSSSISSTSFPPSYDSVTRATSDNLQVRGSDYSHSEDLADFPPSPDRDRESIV

In the case of `O=C(Cc1cccc(Oc2ccccc2)c1)Nc1nnc(N[C@@H]2CCN(c3cccnn3)C2)s1`, the INH [1] is reported as 8.9 nM, the Activity [2] is reported as “Non-Toxic” and the inhibition at 1 µM (A549 [3]) is reported as ~100%. For the same molecule, the Activity [4] was “Non-Toxic”, the inhibition [5] was “Dose-Dependent Effect” and the Activity [6] was “Non-Toxic”. The half-life [7] was 2.02 h, the bioavailability [8] was 5% and the Activity [9] was “Non-Toxic”. The Cmax [10] was 487 ng/mL, the MRT inf [11] was 3.83 h and the Activity [12] was “Non-Toxic”. The EC50 [13] was 10.3 nM, the INH (Homo sapiens) was 107 nM and the IC50 [14] was 7530 nM. The Activity [15] was “Non-Toxic”, the INH [16] was > 30 µM and the Activity [17] was “Non-Toxic”. It also gave a Cmax [18] of 6500 ng/mL, an MRT inf [19] of 1.59 h and a Vd [20] of 15.7 L/kg. The Activity [21] was “Non-Toxic”, the Activity [22] was “Non-Toxic” and the half-life [23] was 5.06 h. For the same molecule, the Activity [24] was “Non-Toxic”, the IC50 (A549 [25]) was 4.04 nM and the inhibition (A549 [26]) was “Dose-Dependent Effect”. The TGI (A549 [27]) was “Active”, the Activity [28] was “Non-Toxic” and the MRT last at 48 h [29] was 3.73 h. It also gave an AUC(0-inf) [30] of 4630 ng·h/mL.
